What all share (type): cell-based
The target of one test is T1, BTK (Homo sapiens, UniProt Q06187).
T1 construct: the BTK open reading frame (ORF) was first shuttled from a pcDNA-DEST40-BTK vector; expressed in transfected cells; host or cells: HEK293A (Invitrogen R70507), lentiviral transduction, blasticidin selection
The test can be described thus: BTK-GFP protein abundance flow cytometry assay in HEK293A. The following applies: 24 h; for BTK degradation Amax: % protein remaining at the concentration at which maximum degradation is seen, HEK293A; for DC50: concentration at which 50% maximal degradation was observed, HEK293A BTK-GFP sensor cells. The gist of the method:
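HEK293A cells stably expressing bicistronic BTK-GFP-iresRFP were treated 24 h at 37° C with 10-point 1:3 dilutions from 10 μM, DMSO at 0.1%. GFP was read by flow cytometry as median of 5,000 single cells, scaled between RFP-only cells (0%) and DMSO controls (100%). DC50 = concentration at 50% degradation; Amax = % protein remaining at maximal degradation.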
For orientation: Flow cytometry measures light scatter and fluorescence of single cells or particles in a stream.

In the next test the target is T2, CSK (Homo sapiens, UniProt P41240).
T2 construct: EGFP (after a Leu that replaces the STOP codon); expressed in transfected cells; host or cells: HEK293A (Invitrogen R70507), lentiviral transduction
The test can be described thus: CSK-GFP protein abundance flow cytometry assay in HEK293A. The following applies: for CSK Amax: % protein remaining at the concentration of maximum degradation; for DC50: HEK293A CSK-GFP sensor cells, 24 h. On the procedure: (§1) Degradation of BTK, CSK, ABL2, EPHA4 and YES1 was measured in HEK293A cells (Invitrogen R70507) expressing either BTK-GFP and RFP, CSK-GFP and mCherry, GFP-ABL2 and mCherry, EPHA4-GFP and mCherry, or YES1-GFP and mCherry from a stably integrated bicistronic BTK-GFP-iresRFP, CSK-GFP-CHYSEL-mCherry, GFP-ABL2-CHYSEL-mCherry, EPHA4-GFP-CHYSEL-mCherry, or YES1-GFP-CHYSEL-mCherry construct, respectively. Reduction of the GFP signal measured by flow cytometry served as readout for BTK, CSK, ABL2, EPHA4 and YES1 degradation after degrader treatment.
(§2) 293A BTK-GFP-Ires-RFP, CSK-GFP-CHYSEL-mCherry, GFP-ABL2-CHYSEL-mCherry, EPHA4-GFP-CHYSEL-mCherry, or YES1-GFP-CHYSEL-mCherry sensor cells were generated by lentiviral vector transduction using the pLenti6-BTK-GFP-Ires-RFP, pLenti6-mCherryCHYSEL-EGFP-ABL2, pLenti6-CSK-GFP-CHYSEL-mCherry, pLenti6-EPHA4-GFP-CHYSEL-mCherry or pLenti6-YES1-GFP-CHYSEL-mCherry sensor construct described before. Lentiviral particles were produced in HEK293FT cells (Invitrogen R70007) by co-transfection of 500 ng pLenti6-BTK-GFP-Ires-RFP or pLenti6-IKZF3-GFP-Ires-RFP, 500 ng delta8.71 and 200 ng pVSVG diluted in 100 μL OptiMEM serum free medium (Invitrogen #11058-021) that was mixed after 5 min preincubation with 3 μL of Lipofectamine2000 (Invitrogen #11668-019) in 97 μL OptiMEM serum free medium. The mix was incubated for another 20 min at RT and then added on 1 mL of a freshly prepared suspension of HEK293FT cells in a well of a 6-well plate (concentration 1.2×10^6 cells/mL). 1 day after transfection, the medium was replaced with 1.5 mL of complete growth medium (DMEM high Glucose+10% FCS+1% L-Glutamine+1% NEAA+1% NaPyr.). 48 h post transfection supernatant containing viral transducing particles was collected and frozen at −80° C.
(§3) 2 days before transduction with viral particles 1×10^5 HEK293A cells (Invitrogen R70507) were seeded in 2 mL growth medium in a well of a 6-well plate. Infection was performed with 90 μL of collected supernatant containing viral transducing particles in 1 mL medium including 8 µg/mL polybrene. 24 h post infection, stably transfected cells were selected with blasticidin at a concentration of 8 μg/mL referred to as stable HEK293A sensor cells.
(§4) Stable HEK293A sensor cells were maintained in complete growth medium (DMEM high Glucose+10% FCS+1% L-Glutamine+1% NEAA+1% NaPyr.) with passaging performed twice per week. […] GFP and RFP are read in the channels called FITC and PE, respectively.
(§5) Concentration response curves plotting relative reduction of the GFP signal (measured by flow cytometry) versus 10 compound concentrations (starting concentration 10 μM, 3 fold dilution steps) of the compounds allowed generation of DC50 values.

The next test addresses T3, YES1 (Homo sapiens, UniProt P07947).
T3 construct: EGFP (after a Leu that replaces the STOP codon); expressed in transfected cells; host or cells: HEK293A (Invitrogen R70507), lentiviral transduction
The test can be described thus: YES1-GFP protein abundance flow cytometry assay in HEK293A. The following applies: for YES1 Amax: % protein remaining at the concentration of maximum degradation; for DC50: HEK293A YES1-GFP sensor cells, 24 h. On the procedure: as §1, §2, §3, §4, §5

Each structure is given as a SMILES string.

T1 sequence (Q06187 whole entry): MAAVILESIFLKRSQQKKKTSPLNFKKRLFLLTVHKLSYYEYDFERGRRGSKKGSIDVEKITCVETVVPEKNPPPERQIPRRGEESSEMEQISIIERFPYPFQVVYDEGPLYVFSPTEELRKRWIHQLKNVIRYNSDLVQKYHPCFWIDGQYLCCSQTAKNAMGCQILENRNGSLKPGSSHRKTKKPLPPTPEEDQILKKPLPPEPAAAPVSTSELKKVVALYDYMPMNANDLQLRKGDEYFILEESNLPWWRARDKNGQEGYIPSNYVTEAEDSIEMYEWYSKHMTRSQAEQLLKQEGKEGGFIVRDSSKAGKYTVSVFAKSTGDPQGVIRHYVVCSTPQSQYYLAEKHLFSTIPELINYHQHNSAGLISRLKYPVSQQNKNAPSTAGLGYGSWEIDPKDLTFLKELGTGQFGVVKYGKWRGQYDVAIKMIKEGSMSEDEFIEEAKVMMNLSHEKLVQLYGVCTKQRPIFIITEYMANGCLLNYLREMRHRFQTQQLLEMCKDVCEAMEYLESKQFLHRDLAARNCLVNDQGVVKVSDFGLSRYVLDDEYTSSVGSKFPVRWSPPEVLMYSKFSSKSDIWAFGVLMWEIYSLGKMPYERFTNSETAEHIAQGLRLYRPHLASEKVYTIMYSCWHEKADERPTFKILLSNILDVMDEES
T3 sequence (P07947 whole entry, looked up): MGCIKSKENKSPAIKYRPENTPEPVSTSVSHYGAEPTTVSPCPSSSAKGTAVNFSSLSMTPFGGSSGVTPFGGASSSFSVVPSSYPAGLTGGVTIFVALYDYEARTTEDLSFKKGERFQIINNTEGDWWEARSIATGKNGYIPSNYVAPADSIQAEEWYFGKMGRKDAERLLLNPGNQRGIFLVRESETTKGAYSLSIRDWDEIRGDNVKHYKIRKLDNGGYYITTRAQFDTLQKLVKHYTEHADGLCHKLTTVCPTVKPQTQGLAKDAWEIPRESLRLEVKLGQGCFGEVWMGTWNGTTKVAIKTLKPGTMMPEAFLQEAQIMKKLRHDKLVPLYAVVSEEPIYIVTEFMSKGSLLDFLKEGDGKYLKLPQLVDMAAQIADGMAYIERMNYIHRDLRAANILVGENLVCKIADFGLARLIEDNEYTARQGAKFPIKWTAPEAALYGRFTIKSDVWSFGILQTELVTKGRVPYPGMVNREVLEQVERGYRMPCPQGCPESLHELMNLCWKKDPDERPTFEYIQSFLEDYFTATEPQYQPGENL
T2 sequence (P41240 whole entry): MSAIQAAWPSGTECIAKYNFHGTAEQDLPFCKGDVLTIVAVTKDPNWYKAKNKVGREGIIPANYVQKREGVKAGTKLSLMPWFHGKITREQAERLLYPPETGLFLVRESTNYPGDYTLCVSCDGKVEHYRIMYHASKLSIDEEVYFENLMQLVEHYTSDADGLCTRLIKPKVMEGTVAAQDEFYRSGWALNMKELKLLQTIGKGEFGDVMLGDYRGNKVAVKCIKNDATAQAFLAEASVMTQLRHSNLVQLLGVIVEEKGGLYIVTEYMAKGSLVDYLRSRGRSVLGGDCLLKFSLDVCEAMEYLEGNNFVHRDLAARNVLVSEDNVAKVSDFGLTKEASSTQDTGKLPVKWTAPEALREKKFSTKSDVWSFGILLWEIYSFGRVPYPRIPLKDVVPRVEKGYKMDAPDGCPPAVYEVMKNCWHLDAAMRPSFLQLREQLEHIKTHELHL

`COc1ccc(C(=O)N2CCC3(CCN(C(=O)CCCCCCCN4CCN(c5cc(Nc6ncc(C(=O)Nc7c(C)cccc7Cl)s6)nc(C)n5)CC4)CC3)CC2)cc1N1CCC(=O)NC1=O` [compound 06, N-(2-chloro-6-methylphenyl)-2-((6-(4-(8-(9-(3-(2,4-dioxotetrahydropyrimidin-1(2H)-yl)-4-methoxybenzoyl)-3,9-diazaspiro[5.5]undecan-3-yl)-8-oxooctyl)piperazin-1-yl)-2-methylpyrimidin-4-yl)amino)thiazole-5-carboxamide]: at BTK, the “BTK degradation Amax” value came out at 2.1% and the DC50 was 4.7 nM. On CSK, the “CSK Amax” value was determined as 4% and the DC50 was 4 nM. In addition, on YES1, the “YES1 Amax” value was 4% and the DC50 is 9 nM.
Regarding `COc1ccc(C(=O)N2CCC3(CCN(C(=O)CN4CCN(c5cc(Nc6ncc(C(=O)Nc7c(C)cccc7Cl)s6)nc(C)n5)CC4)CC3)CC2)cc1N1CCC(=O)NC1=O` [compound 07, N-(2-chloro-6-methylphenyl)-2-((6-(4-(2-(9-(3-(2,4-dioxotetrahydropyrimidin-1(2H)-yl)-4-methoxybenzoyl)-3,9-diazaspiro[5.5]undecan-3-yl)-2-oxoethyl)piperazin-1-yl)-2-methylpyrimidin-4-yl)amino)thiazole-5-carboxamide], on BTK, the “BTK degradation Amax” value worked out at 0.9% and the DC50 stood at 9.3 nM. On CSK, the “CSK Amax” value is given as 1% and the DC50 amounted to 23 nM. For the same molecule, at YES1, the “YES1 Amax” value came out at 11% and the DC50 was 124 nM.

Values taken from US20220387602A1, “BIFUNCTIONAL DEGRADERS AND THEIR METHODS OF USE” (NOVARTIS AG, priority 2019, published 2022).
